The text below walks through data of patent US10695364B2, “Anti-hemorrhaging compositions” (Ariel-University Research and Development Company Ltd., priority 2015, dated 2020).

The structures appear in SMILES notation. Entries after “also recorded” stand apart in the source; their conditions may differ. Counter-ions that a name gives are not always drawn.

In this test the test system is blood drawn from mice. Nature of the test: Blood coagulation assay (presence or absence of blood clots, observed with CCD camera). On the procedure:
Rats or mice (2-3 months old) were sacrificed using CO2 and their blood was extracted directly from the heart using 1 ml syringe and a 23-gauge needle. Blood was transferred to two groups of experimental tubes (400 microliters in each): empty tubes, and tubes containing citrate at a final concentration of 0.35% by weight (e.g., 50 μl of a respective 3.2% stock solution of trisodium citrate in water).
The anti-coagulant activity of the citrate powder was confirmed by recording absence of clot formation during the entire experiment, and thereafter, each of the following components was added to the tubes in both groups, at varying amounts:
=Coral skeleton particulates prepared from Porites lutea (to achieve a final concentration of 50-200 mg/ml)
=Coral skeleton particulates prepared from Stylophora subseriata (to achieve a final concentration of 50-200 mg/ml)
=Geological aragonite (to achieve a final concentration of 50-200 mg/ml)
=amorphous calcium carbonate (ACC) (1-200 mg, to achieve a final concentration of 2-50 mg/ml)
=Glass beads (0.1 mm diameter; to achieve a final concentration of 100 mg/ml)
Coagulation and anti-coagulation activity (presence and absence, respectively, of blood clots) was observed using a CCD camera.

For the compound `O=C(O)CC(O)(CC(=O)O)C(=O)O` [citrate, Trisodium citrate], under “blood drawn from mice, 0.35% by weight of citrate, no calcium carbonate”, the “effect of citrate by itself on clotting” value was “blocked clotting; also recorded: anti-coagulation effect”. `O=C([O-])[O-].[K+].[K+]` [potassium carbonate]: where the note is “final concentration 50 mg/ml, citrate-containing blood, data not shown”, the “coagulation time of citrate-containing blood” value fell in the range of 40 to 45 min.
